Measured values reported in ChEMBL document CHEMBL1124139, “2,4-Dihydro-3H-1,2,4-triazole-3-thiones as potential antidepressant agents” (J Med Chem, 1988).

How the values were obtained:
[1] = species on record: Mus musculus; assay: Antidepressant activity was evaluated by measuring its ability to antagonize RO 4-1284-induced hypothermia in mice; assay type: functional
[2] = species on record: Mus musculus; assay: Antidepressant activity was evaluated by measuring its ability to antagonize reserpine-induced ptosis in mice; assay type: functional
[3] = Acute cytotoxicity was evaluated as LD50 in mice (ip); assay type: organism-based; conditions: mouse, in vivo
[4] = biological target: T1, Amine oxidase [flavin-containing] B (Rattus norvegicus, UniProt P19643); assay: Concentration required to inhibit Monoamine oxidase B in rat brain using [14C]phenylethylamine; assay type: tissue-based; parameters: Control: scale not given: the % may be the effect or the level left
T1 sequence (P19643 whole entry): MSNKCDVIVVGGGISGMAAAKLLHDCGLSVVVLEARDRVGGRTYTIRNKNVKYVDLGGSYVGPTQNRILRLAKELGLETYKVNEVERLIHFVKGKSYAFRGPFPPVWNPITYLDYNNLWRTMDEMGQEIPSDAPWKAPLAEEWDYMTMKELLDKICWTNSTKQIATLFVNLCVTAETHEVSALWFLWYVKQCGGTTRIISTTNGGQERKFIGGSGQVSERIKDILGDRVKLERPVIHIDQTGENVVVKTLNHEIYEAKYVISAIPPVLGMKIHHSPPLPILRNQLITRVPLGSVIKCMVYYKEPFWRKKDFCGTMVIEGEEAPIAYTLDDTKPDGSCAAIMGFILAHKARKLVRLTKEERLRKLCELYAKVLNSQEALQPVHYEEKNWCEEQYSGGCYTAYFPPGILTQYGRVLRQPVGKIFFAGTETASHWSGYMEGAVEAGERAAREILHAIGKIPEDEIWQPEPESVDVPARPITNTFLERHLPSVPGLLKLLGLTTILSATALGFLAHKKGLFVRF

[5] = biological target: T2, Amine oxidase [flavin-containing] A (Rattus norvegicus, UniProt P21396); assay: Concentration required to inhibit Monoamine oxidase A activity in rat brain using [14C]5-HT; assay type: tissue-based
T2 sequence (P21396 whole entry): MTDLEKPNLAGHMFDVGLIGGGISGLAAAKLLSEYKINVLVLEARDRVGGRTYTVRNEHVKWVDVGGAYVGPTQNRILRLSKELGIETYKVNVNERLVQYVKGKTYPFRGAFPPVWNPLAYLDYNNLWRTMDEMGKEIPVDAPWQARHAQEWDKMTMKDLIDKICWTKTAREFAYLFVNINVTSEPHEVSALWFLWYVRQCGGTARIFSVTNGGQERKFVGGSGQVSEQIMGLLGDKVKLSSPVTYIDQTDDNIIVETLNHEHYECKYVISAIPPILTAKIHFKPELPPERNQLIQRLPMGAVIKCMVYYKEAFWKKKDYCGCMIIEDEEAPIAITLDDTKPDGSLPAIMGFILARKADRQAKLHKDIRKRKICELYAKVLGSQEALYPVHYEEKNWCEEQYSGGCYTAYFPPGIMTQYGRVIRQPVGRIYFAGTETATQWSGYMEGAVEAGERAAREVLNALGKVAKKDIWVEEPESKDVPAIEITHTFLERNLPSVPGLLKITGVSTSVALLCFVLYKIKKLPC

[6] = species on record: Rattus norvegicus; assay: Concentration required to inhibit [3H]- NE(norepinephrine) uptake in to rat cortical synaptosomes; assay type: functional; parameters: scale not given: the % may be the effect or the level left; conditions: Brain
[7] = test system: Rattus norvegicus; assay: Inhibitory activity of compound against ability of NE to enhance the inhibition produced by GABA after 1 i.p. injection of 10 mg/kg administered (acute treatment); assay type: functional; conditions: ip, route intraperitoneal
[8] = test system: Rattus norvegicus; assay: Inhibitory activity of compound against ability of NE to enhance the inhibition produced by GABA after ip injection of 10 mg/kg administered once a day for 21 days (chronic treatment); assay type: functional; conditions: 504 h, route intraperitoneal
[9] = test system: Rattus norvegicus; assay: Percent inhibitory activity caused by norepinephrine after 1 i.p. injection of 10 mg/kg administered (acute treatment); assay type: functional; conditions: ip, route intraperitoneal
[10] = test system: Rattus norvegicus; assay: Percent inhibitory activity caused by norepinephrine after ip injection of 10 mg/kg administered once a day for 21 days (chronic treatment); assay type: functional; conditions: 504 h, route intraperitoneal
[11] = species on record: Rattus norvegicus; assay: Concentration required to inhibit [3H]- NE(norepinephrine) uptake into rat cortical synaptosomes; assay type: functional; parameters: scale not given: the % may be the effect or the level left; conditions: Brain
[12] = test system: Rattus norvegicus; assay: Ability of compound to inhibity the ability of NE to enhance the inhibition produced by GABA after 1 i.p. injection of 10 mg/kg administered (acute treatment); assay type: functional; conditions: ip, route intraperitoneal
[13] = test system: Rattus norvegicus; assay: Ability of compound to inhibity the ability of NE to enhance the inhibition produced by GABA after ip injection of 10 mg/kg administered once a day for 21 days (chronic treatment); assay type: functional; conditions: 504 h, route intraperitoneal

| SMILES | ED50 [1] | ED50 [2] | LD50 [3] | also measured |
| --- | --- | --- | --- | --- |
| Cn1nc(-c2ccc3c(c2)OCO3)n(C)c1=S | > 50 mg/kg | > 200 mg/kg | > 800 mg/kg |  |
| Cn1nc(-c2c(F)cccc2F)n(C)c1=S | 0.44 mg/kg | 0.36 mg/kg | 400 mg/kg | MAO-B activity (% of control) [4]: 97%; MAO-A activity remaining (% of control) [5]: 104%; Control [6]: 105% |
| Cn1nc(-c2cccc(F)c2)n(C)c1=S [SURITOZOLE] | 0.37 mg/kg | 0.29 mg/kg | 200 mg/kg | MAO-B activity (% of control) [4]: 96%; MAO-A activity remaining (% of control) [5]: 105%; Control [6]: 110% |
| CNCCCN1c2ccccc2CCc2ccccc21 [DESIPRAMINE] | 0.94 mg/kg | 1.86 mg/kg | 75 mg/kg | Control [6]: 37%; inhibition in vivo at 10 mg/kg [7]: 68%; inhibition in vivo at 10 mg/kg [8]: 49%; inhibition in vivo at 10 mg/kg [9]: 3.5%; inhibition in vivo at 10 mg/kg [10]: 7.8% |
| CNCCC=C1c2ccccc2CCc2ccccc21 [NORTRIPTYLINE] | 0.71 mg/kg | 4.85 mg/kg | 50 mg/kg |  |
| Cn1nc(-c2ccc(Cl)cc2Cl)n(C)c1=S | > 25 mg/kg |  | > 80 mg/kg |  |
| CCCn1c(-c2ccc(Cl)cc2)nn(C)c1=S | > 12.5 mg/kg | 12.5 mg/kg | 200 mg/kg |  |
| Cn1nc(-c2cccc(C(F)(F)F)c2)n(C)c1=S | > 50 mg/kg | > 200 mg/kg | 400 mg/kg |  |
| Sc1n[nH]c(-c2ccc(Cl)cc2)n1 | > 50 mg/kg | > 200 mg/kg | > 800 mg/kg |  |
| Cn1nc(-c2c(Cl)cccc2Cl)n(C)c1=S | > 50 mg/kg | > 100 mg/kg | 400 mg/kg |  |
| Cc1ccc(-c2nn(C)c(=S)n2C)cc1 | 1.74 mg/kg | 4.2 mg/kg | 400 mg/kg |  |
| Cn1nc(-c2ccc(Cl)cc2)nc1S | > 50 mg/kg | > 200 mg/kg | > 800 mg/kg |  |
| Cn1nc(-c2ccc(Cl)c(Cl)c2)n(C)c1=S | 29 mg/kg | 4.4 mg/kg | > 800 mg/kg |  |
| Cn1nc(-c2ccccc2F)n(C)c1=S | 0.74 mg/kg | 0.23 mg/kg | 400 mg/kg | MAO-B activity (% of control) [4]: 96%; MAO-A activity remaining (% of control) [5]: 72%; Control [11]: 106% |
| Cn1c(S)nnc1-c1ccccc1F | > 25 mg/kg | > 200 mg/kg | > 800 mg/kg |  |
| Cn1nc(-c2ccc(F)cc2)n(C)c1=S | 0.61 mg/kg | 1 mg/kg | 200 mg/kg | MAO-B activity (% of control) [4]: 90%; MAO-A activity remaining (% of control) [5]: 70%; Control [6]: 104% |
| Cn1nc(-c2ccccc2Cl)n(C)c1=S | 0.37 mg/kg | 0.58 mg/kg | 200 mg/kg |  |
| C#CCN(C)Cc1ccccc1 [PARGYLINE] | 13.6 mg/kg | 37.1 mg/kg | 400 mg/kg |  |

| SMILES | ED50 [1] | ED50 [2] | LD50 [3] | also measured |
| --- | --- | --- | --- | --- |
| CCn1c(-c2ccc(Cl)cc2)nn(C)c1=S | > 50 mg/kg | 21.2 mg/kg | > 800 mg/kg |  |
| Cn1c(S)nnc1-c1ccccc1 | > 50 mg/kg | > 200 mg/kg | > 800 mg/kg |  |
| CN(C)CCC=C1c2ccccc2CCc2ccccc21 [AMITRIPTYLINE] | 0.36 mg/kg | 8.73 mg/kg | 100 mg/kg |  |
| Cn1nc(-c2ccc(F)cc2F)n(C)c1=S | 1 mg/kg | 2.37 mg/kg | 400 mg/kg |  |
| Cn1nc(-c2ccccc2)n(C)c1=S | 0.15 mg/kg | 0.13 mg/kg | 100 mg/kg | MAO-B activity (% of control) [4]: 110%; MAO-A activity remaining (% of control) [5]: 104%; Control [11]: 92% |
| CC(Cc1ccccc1)NN (stereo not given) [PHENIPRAZINE] | 1.1 mg/kg | 1.61 mg/kg | 100 mg/kg |  |
| Cn1nc(-c2ccc(Cl)cc2)n(C)c1=S | 1.34 mg/kg | 0.27 mg/kg | 400 mg/kg | MAO-B activity (% of control) [4]: 75%; MAO-A activity remaining (% of control) [5]: 109%; Control [6]: 90%; inhibition in vivo at 10 mg/kg [12]: 33%; inhibition in vivo at 10 mg/kg [9]: 6.3%; inhibition in vivo at 10 mg/kg [10]: 10.9%; inhibition in vivo at 10 mg/kg [13]: 0% |
| COc1ccc(-c2nn(C)c(=S)n2C)cc1 | > 25 mg/kg | 3.3 mg/kg | > 800 mg/kg |  |
| CCn1c(-c2ccccc2)nn(C)c1=S | 0.58 mg/kg | 1.2 mg/kg | 400 mg/kg |  |
| CCn1nc(-c2ccc(Cl)cc2)n(C)c1=S | > 50 mg/kg | 100 mg/kg | 400 mg/kg |  |
| Cn1nc(-c2cccc3ccccc23)n(C)c1=S | > 50 mg/kg | > 200 mg/kg | > 800 mg/kg |  |
| Cn1c(S)nnc1-c1ccc(Cl)cc1 | > 50 mg/kg | > 200 mg/kg | > 800 mg/kg |  |
| Cn1nc(-c2ccccc2)n(C)c1=O | > 50 mg/kg | > 200 mg/kg | 400 mg/kg |  |
| C#CCN(C)[C@H](C)Cc1ccccc1 [SELEGILINE] | 1.8 mg/kg | 4.9 mg/kg | 200 mg/kg | Control [4]: 13% |
| CNCCCC1c2ccccc2C=Cc2ccccc21 [PROTRIPTYLINE] | 0.14 mg/kg | 0.43 mg/kg | 50 mg/kg |  |
| CN(C)CCCN1c2ccccc2CCc2ccccc21 [IMIPRAMINE] | 0.5 mg/kg |  |  |  |
| Fc1ccc(-c2n[nH]c(S)n2)cc1 | > 50 mg/kg | > 200 mg/kg | 400 mg/kg |  |
